Entries after “also recorded” stand apart in the source; their conditions may differ. Marks after values point to notes of the source that are not given here. Residues, ends and D or L forms follow the SMILES beside them.
Assays:
Mushroom tyrosinase [1] = target: T1, Mushroom tyrosinase (Agaricus bisporus, UniProt C7FF04); test: Diphenolase inhibitory activity of tyrosinase (ʟ-DOPA as substrate) and Lineweaver–Burk mode of inhibition; type: biochemical; conditions: diphenolase reaction; for Mode of Inhibition: Lineweaver–Burk plot, [S] 0.125 to 0.5 mM, different peptide concentrations
T1 construct: purchased Sigma-Aldrich
Protocol: (§1) The monophenolase and diphenolase inhibitory activities of tyrosinase were determined by using ʟ-tyrosine and ʟ-DOPA as substrates, respectively, as previously described. Various concentrations of peptides were tested to determine the IC50 values, i.e., the concentration of peptides required to inhibit half of the tyrosinase activities. The activities of monophenolase and diphenolase reactions were determined through the measurement of the rate of formation of dopachrome in the presence of substrate concentrations, [S] ranging from 0.125 to 0.5 mM. The initial velocity, V of the reaction was determined using the Beer–Lambert law:(1) ΔA=ε l Δc (2) V=ΔC/t=ΔA/ε l t where ΔC/t denotes the rate of change of the solution concentration; ΔA/t denotes the rate of change of absorbance i.e., slope of the reaction; ε denotes the molar extinction coefficient of dopachrome (3700 M^−1 cm^−1) and l denotes the pathlength.
Target sequence in this assay (C7FF04 1-392 limits assumed): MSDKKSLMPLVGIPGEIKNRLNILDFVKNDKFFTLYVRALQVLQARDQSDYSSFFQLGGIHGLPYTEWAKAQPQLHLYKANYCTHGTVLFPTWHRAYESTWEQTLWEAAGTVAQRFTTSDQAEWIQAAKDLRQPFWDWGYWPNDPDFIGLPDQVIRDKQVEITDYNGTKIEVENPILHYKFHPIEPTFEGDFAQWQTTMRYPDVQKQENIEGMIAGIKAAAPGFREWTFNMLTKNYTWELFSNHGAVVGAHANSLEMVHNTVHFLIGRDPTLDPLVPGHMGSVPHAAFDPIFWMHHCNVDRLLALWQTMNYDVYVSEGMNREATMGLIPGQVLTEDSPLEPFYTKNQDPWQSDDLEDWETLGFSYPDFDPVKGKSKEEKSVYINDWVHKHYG

[2] = Copper chelating activity (pyrocatechol violet); conditions: peptide 10 mg/mL, 50 mM sodium acetate buffer pH 6.0, absorbance 632 nm, mean ± standard deviation (n = 3), SD
Protocol: The copper chelating activity was determined according to Kubglomsong et al.. Briefly, 4 mM of chromogenic reagent, i.e., pyrocatechol violet was prepared in 50 mM sodium acetate buffer (pH 6.0). Then, 10 µL of peptide sample (10 mg/mL), 280 µL sodium acetate buffer, 10 µL CuSO4∙5H2O and lastly 6 µL pyrocatechol violet were added to a 96-well plate. The sample solution was mixed well and the absorbance was measured at 632 nm using a spectrophotometer (Spectramax M5, Molecular Devices, San Jose, CA, USA). Ethylenediaminetetraacetic acid (EDTA) was used as the positive control. The copper chelating activity is calculated as follows:(3) Copper chelating activity %=Acontrol−Asample/Acontrol×100 where Acontrol denotes the absorbance of the system containing sodium acetate buffer, pyrocatechol violet and CuSO4∙5H2O whereas Asample denotes the absorbance of the system containing peptide, sodium acetate buffer, pyrocatechol violet and CuSO4∙5H2O.

[3] = Ferric reducing antioxidant power (FRAP) assay; conditions: peptide 10 mg/mL; 37 °C for 1 h; absorbance 593 nm; mean ± standard deviation (n = 3); SD
Protocol: The reducing potential of peptides was measured according to Benzie and Strain [20]. ferric reducing antioxidant power (FRAP) reagent containing 300 mM acetate buffer (pH 3.6), 10 mM TPTZ prepared in 40 mM HCl and 20 mM FeCl3⸱6H2O in the ratio of 10:1:1 was incubated at 37 °C for 30 min. Then, 200 µL of FRAP reagent was added to 2.7 µL peptide sample (10 mg/mL) in a 96-well plate and mixed well before incubating at 37 °C for 1 h. The absorbance of the sample was then measured spectrophotometrically at 593 nm. Freshly prepared FRAP reagent was used for each run. A standard curve was prepared using FeSO4⸱7H2O at 0–3 mM. The peptide FRAP was expressed in mM FeSO4. Gallic acid was used as the positive control.

[4] = ABTS free radical scavenging assay; conditions: peptide 10 mg/mL; dark, room temperature, 6 min; absorbance 734 nm; mean ± standard deviation (n = 3); SD
Protocol: The free radical scavenging potential of peptides was measured according to Cai, Luo, Sun and Corke. Briefly, ABTS reagent containing 7 mM ABTS and 2.45 mM ammonium persulfate were incubated in the dark at room temperature for 12–16 h. The reagent was diluted using 80% ethanol to an absorbance of 0.700 ± 0.005 at 734 nm. Then, 195 µL of the diluted ABTS reagent was added to 5 µL of peptide sample (10 mg/mL) and incubated in the dark at room temperature for 6 min. The absorbance of the sample at 734 nm was monitored immediately using a spectrophotometer. Gallic acid was used as the positive control. The ABTS free radical scavenging activity is calculated as follows:(5) ABTS free radical scavenging activity %=Acontrol−Asample/Acontrol×100 where Acontrol denotes the absorbance of the system containing ABTS and water whereas Asample denotes the absorbance of the system containing ABTS and peptide sample.

[5] = DPPH free radical scavenging assay; conditions: peptide 10 mg/mL; 0.1 mM DPPH in ethanol, 30 °C for 30 min; absorbance 517 nm; mean ± standard deviation (n = 3); SD
Protocol: The free radical scavenging potential of peptides was measured according to Blois. Briefly, 0.1 mM DPPH stock solution was prepared in ethanol. In a dark setting, 500 µL of DPPH was added to 16.65 µL peptide sample (10 mg/mL) and incubated at 30 °C for 30 min. The absorbance of the mixture was then monitored at 517 nm using a spectrophotometer. Gallic acid was used as the positive control. The DPPH free radical scavenging activity is calculated as follows:(6) DPPH free radical scavenging activity %=Acontrol−Asample/Acontrol×100 where Acontrol denotes the absorbance of the system containing DPPH and ethanol whereas Asample denotes the absorbance of the system containing DPPH and peptide sample.

tyrosinase = target: tyrosinase; parameters: method as in 2 sources, ref 25 = [25]; PMID 10441774; doi:10.1002/(SICI)1099-1573(199908/09)13:5<371::AID-PTR453>3.0.CO;2-L; 25. Lim J.Y. Ishiguro K. Kubo I. Tyrosinase inhibitory p-Coumaric acid from Ginseng leaves Phytother. Res. 1999 13 371 375 10.1002/(SICI)1099-1573(199908/09)13:5<371::AID-PTR453>3.0.CO;2-L 10441774 ||| ref 26 = [26]; PMID 3141207; doi:10.1007/BF01941189; 26. Maddaluno J.F. Faull K.F. Inhibition of mushroom tyrosinase by 3-amino-L-tyrosines: Molecular probing of the active site of the enzyme Experientia 1988 44 885 887 10.1007/BF01941189 3141207; conditions: read-out: IC50 (tyrosinase mixed-type inhibitor); cited from earlier work
Mushroom tyrosinase [6] = target: T1, Mushroom tyrosinase; test: Monophenolase inhibitory activity of tyrosinase (ʟ-tyrosine as substrate) and Lineweaver–Burk mode of inhibition; type: biochemical; conditions: monophenolase reaction; for Tyrosinase Activity Inhibition (%): substrate ʟ-tyrosine, peptide concentration 10 mg/mL, mean ± standard deviation (n = 3), SD; for Mode of Inhibition: Lineweaver–Burk plot, [S] 0.125 to 0.5 mM, different peptide concentrations
Protocol: as §1
Target sequence in this assay (C7FF04 1-392): as the sequence (C7FF04 1-392 limits assumed) above

[7] = Sun protection factor (SPF) by UV spectrophotometry, Mansur equation; type: physicochemical; conditions: peptide 10 mg/mL, UVB 290–320 nm absorbance, CF 10, mean ± standard deviation (n = 3), SD
Protocol: The ability of peptides to absorb light in the UVB region (290–320 nm) was measured according to the methods described by Dutra, Kedor-Hackmann and Santoro [18]. The UV–Vis spectrophotometer was set to scan the peptide samples from 220 to 400 nm with a 5 nm increment. The SPF values of the peptide samples (10 mg/mL) were calculated using the Mansur equation:(4) SPF=CF×∑290320EEλ×Iλ×Absλ where CF denotes correction factor of 10 (for the short pathlength used); EE denotes erythemal effect spectrum; I denotes solar intensity spectrum and Abs denotes the absorbance of sample.

[8] = substrate ʟ-DOPA, peptide concentration 10 mg/mL, mean ± standard deviation (n = 3), SD

| Compound | Tyrosinase Activity Inhibition (%) (Mushroom tyrosinase [6]) | Mode of Inhibition (Mushroom tyrosinase [6]) | Copper Chelating Activity (%) [2] | Antioxidant Activity FRAP (mM FeSO4) [3] | Antioxidant Activity ABTS (%) free radical scavenging [4] | SPF [7] | other results |
| --- | --- | --- | --- | --- | --- | --- | --- |
| CC(C)C[C@H](NC(=O)[C@H](CO)NC(=O)[C@H](Cc1ccc(O)cc1)NC(=O)CN)C(=O)NCC(=O)N[C@@H](CC(N)=O)C(=O)N[C@@H](Cc1c[nH]c2ccccc12)C(=O)N[C@H](C(=O)N[C@@H](CS)C(=O)N[C@@H](C)C(=O)N[C@@H](C)C(=O)N[C@@H](CCCCN)C(=O)O)C(C)C [DIP1] (H-GYSLGNWVCAAK-OH) |  |  |  |  |  |  | IC50 (Mushroom tyrosinase [1]; substrate ʟ-DOPA, mean ± standard deviation, SD): 3.04 ± 0.39 mM; inhibition at 10000 µg/mL (Mushroom tyrosinase [1]; [8]): 80 ± 2.79% |
| O=C(O)CN(CCN(CC(=O)O)CC(=O)O)CC(=O)O [EDTA, Ethylenediaminetetraacetic acid, reference compound] |  |  | 96.06 ± 0.03^e % |  |  |  |  |
| O=C(O)c1cc(O)c(O)c(O)c1 [Gallic acid, reference compound] |  |  |  | 16.6 ± 0.36 ^c mM FeSO4 | 83.14 ± 3.02 ^d % |  | Antioxidant Activity DPPH (%) free radical scavenging [5]: 81.67 ± 0.03 ^b % |
| O=C(O)/C=C/c1ccc(O)cc1 [p-coumaric acid] |  |  |  |  |  |  | IC50 (tyrosinase): < 0.36 mM |
| FMMFESQNKDLLFK [DIP3] |  |  | 26.23 ± 1.03 ^c % |  | 0.99% | 1.98 ± 0.05 ^b | Tyrosinase Activity Inhibition (%) (Mushroom tyrosinase [1]; [8]): 28.95 ± 1.47 ^c %; Mode of Inhibition (Mushroom tyrosinase [1]): uncompetitive inhibitor |
| HIATNAVLFFGR [DIP2] |  |  | 19.13 ± 2.22 ^b % | 0.018 ± 0.001 ^a mM FeSO4 |  | 6.45 ± 0.40 ^d | Tyrosinase Activity Inhibition (%) (Mushroom tyrosinase [1]; [8]): 17.70 ± 2.66 ^a %; Mode of Inhibition (Mushroom tyrosinase [1]): weaker competitive inhibitor; also recorded: competitive inhibitors |
| ILELPFASGDLLML [MIP2] | 17.26 ± 2.10 ^a % | weaker competitive inhibitor; also recorded: competitive inhibitors | 11.41 ± 0.13 ^a % |  | 1.44% | 3.12 ± 0.13 ^c |  |

Second part, led by results:

| Tyrosinase Activity Inhibition (%) (Mushroom tyrosinase [6]) | Mode of Inhibition (Mushroom tyrosinase [6]) | Compound | Copper Chelating Activity (%) [2] | Antioxidant Activity FRAP (mM FeSO4) [3] | Antioxidant Activity ABTS (%) free radical scavenging [4] | SPF [7] | other results |
| --- | --- | --- | --- | --- | --- | --- | --- |
| 35.86 ± 2.26 ^d % | competitive inhibitors | ADHPF [MIP1] | 94.33 ± 0.04 ^e % | 0.035 ± 0.004 ^a mM FeSO4 | 2.90 ± 0.28 ^b % | 1.80 ± 0.02 ^b |  |
| 22.78 ± 1.12 ^b % | mixed-type inhibitor | FDKLPGFGD [MIP3] | 94.43 ± 0.46 ^e % | 0.034 ± 0.002 ^a mM FeSO4 | 2.11% | 1.36 ± 0.02 ^a |  |

Source: article PMC8004729, “Multifunctional Tyrosinase Inhibitor Peptides with Copper Chelating, UV-Absorption and Antioxidant Activities: Kinetic and Docking Studies” (Foods, 2021)
